The values below come from patent US9487489B2, “Halogen-substituted pyrazole derivatives as pest-control agents” (BAYER CROPSCIENCE AKTIENGESELLSCHAFT, priority 2013, dated 2016).

Data set [1] is described as follows: logP determination by HPLC on a reversed-phase column (C18), EEC Directive 79/831 Annex V.A8. In kind it is physicochemical. The procedure:
(§1) ^a) Note regarding the determination of the logP values and mass detection: The determination of the given logP values was carried out in accordance with EEC Directive 79/831 Annex V.A8 by HPLC (High Performance Liquid Chromatography) on a reversed-phase column (C18). Agilent 1100 LC system; 50*4.6 Zorbax Eclipse Plus C18 1.8 micron; mobile phase A: acetonitrile (0.1% formic acid); mobile phase B: water (0.09% formic acid); linear gradient from 10% acetonitrile to 95% acetonitrile in 4.25 min, then 95% acetonitrile for a further 1.25 min; oven temperature 55° C.; flow rate: 2.0 ml/min. Mass detection is carried out via an Agilend MSD system.
as §1, with “^*)” for “^a)”

Data set [2] has as its system adult cat fleas (Ctenocephalides felis). Put plainly: Ctenocephalides felis in vitro contact test with adult cat fleas (T1). Conditions: after 48 h. The procedure: T1. Ctenocephalides felis—in vitro Contact Tests with Adult Cat Fleas
For the coating of the test tubes, initially 9 mg of active compound are dissolved in 1 ml of acetone p.a. and then diluted with acetone p.a. to the desired concentration. By turning and rocking on an orbital shaker (2 h of rocking rotation at 30 rpm), 250 μl of the solution are distributed homogeneously on the internal walls and the floor of a 25 ml test tube. At 900 ppm active compound solution and 44.7 cm^2 internal surface, an area dose of 5 μg/cm^2 is achieved for homogeneous distribution.
After evaporation of the solvent, the tubes are populated with 5-10 adult cat fleas (Ctenocephalides felis), sealed with a perforated plastic lid and incubated in a horizontal position at room temperature and ambient humidity. After 48 h, the efficacy is determined. To this end, the test tubes are stood upright and the fleas are knocked to the floor of the tube. Fleas which remain motionless on the floor or move in an uncoordinated manner are considered to be dead or moribund.
An efficacy of 100% means that all fleas were dead or moribund. 0% efficacy means that none of the fleas had been damaged.

Data set [3] has as its system larvae of the mustard beetle (Phaedon cochleariae). Put plainly: Phaedon cochleariae spray test (PHAECO). In kind it is in vivo. Conditions: Chinese cabbage leaf discs, after 7 days. The procedure:
H. Phaedon cochleariae-spray Test (PHAECO)
Solvents: 78.0 parts by weight of acetone
• 1.5 parts by weight of dimethylformamide Emulsifier: alkylaryl polyglycol ether
To produce a suitable preparation of active compound, 1 part by weight of active compound is dissolved using the stated parts by weight of solvent and made up with water comprising an emulsifier concentration of 1000 ppm until the desired concentration is reached. To produce further test concentrations, the preparation is diluted with emulsifier-containing water.
After 7 days, the efficacy in % is determined. 100% means that all of the beetle larvae have been killed; 0% means that none of the beetle larvae have been killed.

The mark [4] stands for this setting: HPLC on reversed-phase column (C18), acetonitrile/water with formic acid, EEC Directive 79/831 Annex V.A8.
Where [5] appears, read: HPLC, reversed-phase C18, acetonitrile (0.1% formic acid)/water (0.09% formic acid) gradient.

What is called logP is a log measure of how a compound divides between an organic and an aqueous phase. A low value points to lower lipophilicity. For `Cn1nc(C(F)(F)F)c(C=NO)c1-n1cc(-c2ccc(Cl)c(C(=O)NC3CC3)c2)cn1` (mixture of isomers) [Ic-50], the lipophilicity (logP) in data set [1] (setting [4]) was 2.47.
`Cn1nc(C(F)(F)F)c(C=O)c1-n1cc(-c2ccc(Cl)c(C(=O)NC3(C#N)CC3)c2)cn1` [Ic-102] returned a logP in data set [1] (setting [4]) of 2.61.
The same measure, in the same setting: for `Cn1nc(C(F)(F)C(F)(F)F)c(C(F)(F)F)c1-n1cc(-c2ccc(Cl)c(C(=O)NC3(C4CCC4)CC3)c2)cn1` [Ic-210] the value was 4.77.
With `Cn1nc(C(F)(F)C(F)(F)F)c(C(F)(F)F)c1-n1cnc(-c2ccc(Cl)c(C(=O)NC3CC3)c2)n1` [Ie-2], the logP in data set [1] (setting [5]) worked out at 3.72.
On to `CCN(CC)C(=O)c1cc(-c2cnn(-c3c(C(F)(F)F)c(C(F)(F)C(F)(F)F)nn3C)c2)ccc1S(=O)(=O)NC1CC1` [Ic-197], for which, in data set [1] (setting [4]), the lipophilicity (logP) came to 4.39.
`Cn1nc(C(F)(F)C(F)(F)F)c(C(F)(F)F)c1-n1cc(-c2ccc(Cl)c(C(=O)Nc3ccon3)c2)cn1` [Ic-145]: the “efficacy (dead or moribund fleas)” value in data set [2] (application rate 1 μg/cm^2) and in data set [2] (application rate 5 μg/cm^2) was 100% throughout.
In data set [3] (application rate 100 g/ha), `Cn1nc(C(F)(F)C(F)(F)F)c(C(F)(F)F)c1-n1cc(-c2cncc(C(=O)NC3CC3)n2)cn1` [Ic-178] gave an efficacy in % of 100%.
As for `CSc1c(C(F)(F)C(F)(F)F)nn(C)c1-n1cc(-c2ccc(Cl)c(C(=O)NC3(C#N)CC3)c2)cn1` [Ic-194], in data set [1] (setting [4]), the lipophilicity (logP) amounted to 3.56.
Regarding `CC(NC(=O)c1cc(-c2cnn(-c3c(C(F)(F)F)c(C(F)(F)C(F)(F)F)nn3C)c2)ccc1Cl)C1CC1` (stereo not drawn) [Ic-207], in data set [1] (setting [4]), the log partition coefficient (logP) was 4.4.
Take `CN(C)CCNC(=O)c1cc(-c2cnn(-c3c(C(F)(F)F)c(C(F)(F)C(F)(F)F)nn3C)c2)ccc1Cl` [Ic-138]: in data set [2] (application rate 5 μg/cm^2), the “efficacy (dead or moribund fleas)” value turned out to be 80%.
For `Cn1nc(C(F)(F)C(F)(F)F)c(C(F)(F)F)c1-n1cc(-c2ccc(Cl)c(C(=O)Nc3ccc(F)cc3)c2)cn1` [Ic-209], the log partition coefficient (logP) in data set [1] (setting [4]) is recorded as 4.53.
On to `Cn1nc(C(F)(F)F)c(C(=O)NC2CC2)c1-n1cc(-c2ccc(Cl)c(C(=O)NC3(C#N)CC3)c2)cn1` [Ic-101], for which the lipophilicity (logP) in data set [1] (setting [4]) worked out at 2.32.
For `Cn1nc(C(F)(F)C(F)(F)F)c(C(F)(F)F)c1-n1cnc(-c2cccc(C(=O)NC3(C(N)=S)CC3)c2)n1` [Ie-6], the logP in data set [1] (setting [5]) stood at 3.29.
As for `Cn1nc(C(F)(F)C(F)(F)F)c(C(F)(F)F)c1-n1cnc(-c2cccc(C(=O)Nc3ccc(Cl)nc3)c2)n1` [Ie-5], the efficacy in % in data set [3] (application rate 100 g/ha) was 100%. The lipophilicity (logP) in data set [1] (setting [5]) came out at 4.24.
`Cn1nc(C(F)(F)C(F)(F)F)c(C(F)(F)F)c1-n1cnc(-c2cccc(C(=O)NC3(C#N)CC3)c2)n1` [Ie-7] returned a logP in data set [1] (setting [5]) of 3.46.
The compound `Cn1nc(C(F)(F)C(F)(F)F)c(C(F)(F)F)c1-n1cc(-c2cncc(C(=O)NC3(C#N)CC3)n2)cn1` [Ic-179] had an efficacy in % in data set [3] (application rate 500 g/ha) of 100%.
Take `Cn1nc(C(F)(F)C(F)(F)F)c(C(F)(F)F)c1-n1cnc(-c2cccc(C(=O)NC3CC3)c2)n1` [Ie-3]: the logP in data set [1] (setting [5]) amounted to 3.50.
`Cn1nc(C(F)(F)C(F)(F)F)c(C(F)(F)F)c1-n1cnc(-c2cccc(C(=O)NCc3cccs3)c2)n1` [Ie-4] registered an efficacy in % in data set [3] (application rate 100 g/ha) of 100%. In data set [1] (setting [5]), the logP is 4.05.
For the compound `Cn1nc(C(F)(F)C(F)(F)F)c(C(F)(F)F)c1-n1cc(-c2ccc(Cl)c(C(=O)NCc3ncc[nH]3)c2)cn1` [Ic-146], the “efficacy (dead or moribund fleas)” value in data set [2] (application rate 1 μg/cm^2) and in data set [2] (application rate 5 μg/cm^2) was 80% each time.
In turn, `CON=Cc1c(C(F)(F)F)nn(C)c1-n1cc(-c2ccc(Cl)c(C(=O)NC3CC3)c2)cn1` (mixture of isomers) [Ic-51] gave an efficacy in % in data set [3] (application rate 500 g/ha) of 100%. This compound also came in with a logP in data set [1] (setting [4]) of 3.15.
In data set [3] (application rate 100 g/ha), `Cn1nc(C(F)(F)C(F)(F)F)c(C(F)(F)F)c1-n1cc(-c2ccc(Cl)c(C(=O)NC3CC3)c2)c(N)n1` [Ic-192] came in with an efficacy in % of 100%. Moreover, the logP in data set [1] (setting [4]) turned out to be 3.35.
Compound `Cn1nc(C(F)(F)F)c(C#N)c1-n1cc(-c2ccc(Cl)c(C(=O)NC3CC3)c2)cn1` [Ic-30] registered an efficacy in % in data set [3] (application rate 100 g/ha) of 100%. Also, in data set [1] (setting [4]), the logP turned out to be 2.97.
`CCN(C(=O)c1cc(-c2cnn(-c3c(C(F)(F)F)c(C(F)(F)C(F)(F)F)nn3C)c2)ccc1Cl)C1(C#N)CC1` [Ic-208] registered a logP in data set [1] (setting [4]) of 4.33.
Same read-out and setting: for `Cn1nc(C(F)(F)F)c(CCl)c1-n1cc(-c2ccc(Cl)c(C(=O)NC3CC3)c2)cn1` [Ic-114] the value was 3.12; for `Cn1nc(C(F)(F)F)c(C=NO)c1-n1cc(-c2ccc(Cl)c(C(=O)NC3(C#N)CC3)c2)cn1` (mixture of isomers) [Ic-98], 2.42; for `Cn1nc(C(F)(F)C(F)(F)F)c(C(F)(F)F)c1-n1cc(-c2ccc(C(F)(F)F)c(C(=O)NC3(C#N)CC3)c2)cn1` [Ic-203], 3.88.
Consider `C=CCN(C(=O)c1cc(-c2cnn(-c3c(C(F)(F)F)c(C(F)(F)C(F)(F)F)nn3C)c2)ccc1Cl)C1(C#N)CC1` [Ic-206], for which, in data set [1] (setting [4]), the lipophilicity (logP) is 4.44.
In the case of `Cn1nc(C(F)(F)C(F)(F)F)c(C(F)(F)F)c1-n1cc(-c2ccc(Cl)c(C(=O)Nc3nn[nH]n3)c2)cn1` [Ic-144], the “efficacy (dead or moribund fleas)” value in data set [2] (application rate 1 μg/cm^2) and in data set [2] (application rate 5 μg/cm^2) was 100% throughout.
In the case of `CN(C(=O)c1cc(-c2cnn(-c3c(C(F)(F)F)c(C(F)(F)C(F)(F)F)nn3C)c2)ccc1Cl)C1CC1` [Ic-199], the “efficacy (dead or moribund fleas)” value in data set [2] (application rate 1 μg/cm^2) and in data set [2] (application rate 5 μg/cm^2) was 100% throughout.
Broadly, the chromatographic logP is a lipophilicity value derived from retention on a column. Higher therefore signals a more lipophilic compound. Consider `Cn1nc(C(F)(F)C(F)(F)F)c(C(F)(F)F)c1-n1cnc(-c2ccc(Cl)c(C(=O)NCc3ccccc3)c2)c1` [Ib-1, N-Benzyl-2-chloro-5-{1-[1-methyl-3-(pentafluoroethyl)-4-(trifluoromethyl)-1H-pyrazol-5-yl]-1H-imidazol-4-yl}benzamide], for which, in data set [3] (application rate 100 g/ha), the efficacy in % worked out at 83%. The compound further displayed a chromatographic logP in data set [1] of 4.
Consider `Cc1c(-c2ccc(Cl)c(C(=O)NC3CC3)c2)c(C(F)(F)F)nn1-c1c(C(F)(F)F)c(C(F)(F)C(F)(F)F)nn1C` [Ic-5], for which, in data set [3] (application rate 100 g/ha), the efficacy in % was determined as 83%. In addition, the logP in data set [1] (setting [4]) was determined as 4.60.
With `CCCN(C(=O)c1cc(-c2cnn(-c3c(C(F)(F)F)c(C(F)(F)C(F)(F)F)nn3C)c2)ccc1Cl)C1(C#N)CC1` [Ic-204], the logP in data set [1] (setting [4]) is given as 4.56.
`Cn1nc(C(F)(F)F)c(C=O)c1-n1cc(-c2ccc(Cl)c(C(=O)NC3CC3)c2)cn1` [Ic-52] showed an efficacy in % in data set [3] (application rate 500 g/ha) of 100%. Also, the logP in data set [1] (setting [4]) is 2.67.
Take `Cn1nc(C(F)(F)F)c(C(=O)NC2CC2)c1-n1cc(-c2ccc(Cl)c(C(=O)NC3CC3)c2)cn1` [Ic-100]: the log partition coefficient (logP) in data set [1] (setting [4]) was found to be 2.31.
In data set [1] (setting [4]), `Cn1nc(C(F)(F)C(F)(F)F)c(C(F)(F)F)c1-n1cc(-c2ccc(C(F)(F)F)c(C(=O)NC3CC3)c2)cn1` [Ic-196] came in with a logP of 3.96.
In data set [1] (setting [4]), `CCC(=O)N(C(=O)c1cc(-c2cnn(-c3c(C(F)(F)F)c(C(F)(F)C(F)(F)F)nn3C)c2)ccc1Cl)C1(C#N)CC1` [Ic-205] yielded a logP of 4.63.
As for `CCN(C(=O)c1cc(-c2cnn(-c3c(C(F)(F)F)c(C(F)(F)C(F)(F)F)nn3C)c2)ccc1Cl)C1CC1` [Ic-211], the “efficacy (dead or moribund fleas)” value in data set [2] (application rate 1 μg/cm^2) and in data set [2] (application rate 5 μg/cm^2) was 100% each time.
In data set [3] (application rate 500 g/ha), `Cn1nc(C(F)(F)C(F)(F)F)c(C(F)(F)F)c1-n1cc(-c2cc(C(=O)NC3CC3)c(F)c(S(N)(=O)=O)c2)cn1` [Ic-173] gave an efficacy in % of 100%.
`Cn1nc(C(F)(F)C(F)(F)F)c(C(F)(F)F)c1-n1cc(-c2cc(C(=O)NC3(C#N)CC3)c(Cl)cc2F)cn1` [Ic-93] had an efficacy in % in data set [3] (application rate 500 g/ha) of 100%.
In data set [3] (application rate 100 g/ha), `Cn1nc(C(F)(F)C(F)(F)F)c(C(F)(F)F)c1-n1cc(-c2ccc(Cl)c(C(=O)NC3(C#N)CC3)c2)c(N)n1` [Ic-191] yielded an efficacy in % of 100%. In addition, in data set [1] (setting [4]), the logP turned out to be 3.3.
